ChEMBL document CHEMBL3507680, “University of Dundee, Gates Library screen for HepG2 cell viability”

Assay: Human HepG2 cell viability assay in 384 well format
Format: toxicity, cell-based
Design: dose 125 nL, time 70.5 hour; cytotoxicity at 70.5 h: concentration not given beside the values
Conditions: HepG2 cells, read-out: Inhibition

Row | Structure (SMILES) | cytotoxicity at 70.5 h [%]
1 | CCN(C)C[C@@H]1CN(S(=O)(=O)c2ccc(C#N)cc2)C[C@@H]1CO | -1.6
2 | Cn1ncc2c(N3CCC(F)(F)CC3)nc(-c3ccncc3)nc21 | -13.7
3 | COc1ccc(-c2ccoc2)cc1CNC1CCCC1 | 10.7
4 | CCc1nccc(CN2CCCC(CNC(=O)c3occc3C)C2)n1 (stereo not given) | -10.1
5 | COCc1ncc(CN(Cc2ccco2)C(C)C(C)C)cn1 (stereo not given) | -15.5
6 | Cc1nc(N)nc(C)c1CC(=O)N1CCCN(CC2CC2)C(C(C)C)C1 (stereo not given) | -8.22
7 | CC(CNc1nccc(C(C)C)n1)Oc1cccnc1 (stereo not given) | -6.89
8 | CCN(CC1=CCN(C)CC1)C(=O)CCOC | -6.72
9 | CNc1ccnc(NCCC(=O)Nc2ccccc2OC)n1 | -3.36
10 | N[C@H]1CC[C@@H](n2cc(C(=O)NC3CCc4ccccc4C3)nn2)CC1 (stereo not given in full) | -11.5
11 | CN(Cc1ccccc1)S(=O)(=O)N1C[C@@H](C(=O)O)[C@H](C2CC2)C1 | -6.58
12 | C[C@@H]1CN(Cc2cccnc2)C[C@]1(C)O | -15.2
13 | Oc1cccc(CN2C[C@H]3CC[C@@H]2CN(Cc2ccc(F)cc2)C3)c1 | -1.41
14 | CN1CCN(Cc2ccccc2Oc2ccc(C(N)=O)cn2)CC1 | -6.47
15 | Cc1n[nH]c(C)c1CC(=O)N1CC[C@@](C)(O)[C@@H](Cc2ccccc2)C1 | -16.1
16 | CCCNc1ncc(CN2C[C@H]3CC[C@@H]2CN(C2CCOCC2)C3)cn1 | 2.68
17 | CN(CCn1cnc(-c2ccccc2)c1-c1ncc[nH]1)S(C)(=O)=O | 7.51
18 | c1ccc2c(c1)cnn2CCCNC1CCOC2(CCOCC2)C1 (stereo not given) | -13.6
19 | CCO[C@H]1CN(C)C[C@@H]1NC(=O)c1c[nH]nc1C1CCCCC1 | 21.2
20 | CC(C)(CNc1cccc(Cl)c1)NC(=O)C1CCCN(CC(N)=O)C1 (stereo not given) | -8.71
21 | CN1CCC(N(CCc2ccccc2)C(=O)c2ccc(C#N)cc2)CC1 | -7.31
22 | O=C(O)c1cc(-n2cc3c(n2)CCC3)cc(S(=O)(=O)N2CCOCC2)c1 | 3.53
23 | Cc1nc(C(C)C)sc1C(=O)NCCSc1nccn1C | -10.1
24 | CCC1CN(Cc2nc(C(C)C)no2)CCC(=O)N1Cc1ccccc1 (stereo not given) | 22.7
25 | Cc1ccnc(NC(=O)c2ccc(C)o2)c1 | 12.1
26 | CCOc1cccc(CN2CCCn3nc(CNS(C)(=O)=O)cc3C2)c1 | -9.54
27 | CN(C)C(=O)CN1CCC(c2nnc(Cn3cccn3)n2C2CC2)CC1 | -12
28 | Cc1cc(C)n(CC(=O)N2C[C@@H]3CC[C@H](C2)N(CC2CCC2)C3)c(=O)n1 | 24.1

Row | Structure (SMILES) | cytotoxicity at 70.5 h [%]
29 | CC(C)c1nc(N2CCC(N3CCCCCC3)CC2)c2cnn(C)c2n1 | 13
30 | O=C(NCc1ccc(C(=O)N2CCCC2)cc1)c1cn2c(n1)CNCC2 | -3.69
31 | CC(=O)NCCc1cn(-c2cc(F)ccc2C)cn1 | -8.56
32 | COc1cccc2c1OCC(Cc1ccc(N)nc1C)C2 (stereo not given) | -1.03
33 | CCCc1ccc(CN2C[C@H]3C(=O)N(CC4CC4)C[C@@]3(C(=O)O)C2)o1 | -6.58
34 | CC(C)N1CCCC2(CCN(Cc3nncn3C(C)C)C2)C1=O (stereo not given) | -0.727
35 | COCCc1noc(CN(C)C(=O)C(C)N2CCc3ccccc3C2)n1 (stereo not given) | -9.3
36 | CCn1ncc2[nH]c(-c3cc(OC)c(OC)cc3OC)nc21 | 29.7
37 | Cc1cc(CNCc2c(C)n(CC(C)C)c3ccccc23)[nH]n1 | -5.55
38 | Cc1nn(C)c2nc(N(Cc3ccccn3)CC3CCCO3)sc12 (stereo not given) | 17.1
39 | Cc1noc(-c2ccc(N3CCN(Cc4ncccc4C)CC3)nc2)n1 | -7.47
40 | Cc1csc2ncnc(N3CCC(Cn4cc(C(C)(C)O)nn4)CC3)c12 | 5.18
41 | CCOCc1nc(CSc2ccncc2)n(C2CCN(C)CC2)n1 | 13
42 | CC(C)Cc1cc(C(=O)N2CCC[C@H]2C(=O)N2CCOCC2)on1 | -9.69
43 | CCc1nccn1CCC(=O)N1CC[C@H](CO)[C@H](O)C1 | -10.2
44 | Cc1ncsc1CN1C[C@H]2CC[C@@H]1CN(Cc1ccccc1)C2 | 30
45 | O=c1[nH]nc(C2CC2)n1-c1cccc(Cl)c1 | -4.41
46 | COCCOC(=O)N1CCC(c2nccn2CC2CC2)CC1 | -4.36
47 | Cc1nncn1CCN1C(=O)CC2(CCCC2)CC1=O | -7.54
48 | COc1ccccc1OCCCN1CC=C(c2cnn(C)c2)CC1 | -2.62
49 | CCCN1C[C@H]2CC[C@@H]1CN(c1nnc(C(C)C)s1)C2 | 27.1
50 | CCc1noc(CN(CC)C(=O)CC2C(=O)NCCN2CC=C(C)C)n1 (stereo not given) | 1.29
51 | COCCCN1CCN([C@@H]2c3ccccc3C3(CCNCC3)[C@H]2O)CC1 | 0.267
52 | OC1CN(Cc2ccccc2)CCN(c2ccncc2)C1 (stereo not given) | 11.5
53 | CC(C)N1CCC(CC(=O)N2CCCCC2CCn2cccn2)CC1 (stereo not given) | -10.4
54 | COc1cccc(OC)c1C(=O)N1C[C@@H](CN(C)C)[C@@H](CO)C1 | -2.79
55 | CCCc1ccc(CN2CCC3(CCC(=O)N(C)CC3)CC2)o1 | 17.3
